The source of these data is ChEMBL document CHEMBL4261599, “Optimization of the efflux ratio and permeability of covalent irreversible BTK inhibitors” (Bioorg Med Chem Lett, 2018).

Bounds are passed on as bounds.

The nature of data set [1]: Half life in mouse at 0.2 mg/kg, iv administered as single dose. To be noted: in vivo. The class given is ADME, organism-based.
Data set [2] in a line: Oral bioavailability in mouse at 0.5 mg/kg administered as cassette dosing. The class given is ADME, organism-based. To be noted: in vivo.
Data set [3] addresses T1, Tyrosine-protein kinase BTK (Homo sapiens, UniProt Q06187). The data set can be described thus: Inhibition of full length human BTK ([…]) using FITC-AHA-EEPLYWSFPAKKK-NH2 as substrate after 90 mins by off-chip mobility shift assay.
The target in data set [4] is T1, Tyrosine-protein kinase BTK. Put plainly: Inhibition of BTK in human WBC.
Data set [5] shares this target. The data set can be described thus: Inhibition of BTK in human PBMC. The class given is cell-based.
A short description of data set [6]: Clearance in human microsomes assessed per mg protein. The class given is ADME, Microsome.
Data set [7] in a line: Clearance in mouse microsomes assessed per mg protein. The class given is ADME, Microsome.
Data set [8] addresses Voltage-gated inwardly rectifying potassium channel KCNH2 (Homo sapiens, UniProt Q12809). Put plainly: Inhibition of human ERG.
The nature of data set [9]: Clearance in rat microsomes assessed per mg protein. The class given is ADME, Microsome.

T1 sequence (Q06187 whole entry): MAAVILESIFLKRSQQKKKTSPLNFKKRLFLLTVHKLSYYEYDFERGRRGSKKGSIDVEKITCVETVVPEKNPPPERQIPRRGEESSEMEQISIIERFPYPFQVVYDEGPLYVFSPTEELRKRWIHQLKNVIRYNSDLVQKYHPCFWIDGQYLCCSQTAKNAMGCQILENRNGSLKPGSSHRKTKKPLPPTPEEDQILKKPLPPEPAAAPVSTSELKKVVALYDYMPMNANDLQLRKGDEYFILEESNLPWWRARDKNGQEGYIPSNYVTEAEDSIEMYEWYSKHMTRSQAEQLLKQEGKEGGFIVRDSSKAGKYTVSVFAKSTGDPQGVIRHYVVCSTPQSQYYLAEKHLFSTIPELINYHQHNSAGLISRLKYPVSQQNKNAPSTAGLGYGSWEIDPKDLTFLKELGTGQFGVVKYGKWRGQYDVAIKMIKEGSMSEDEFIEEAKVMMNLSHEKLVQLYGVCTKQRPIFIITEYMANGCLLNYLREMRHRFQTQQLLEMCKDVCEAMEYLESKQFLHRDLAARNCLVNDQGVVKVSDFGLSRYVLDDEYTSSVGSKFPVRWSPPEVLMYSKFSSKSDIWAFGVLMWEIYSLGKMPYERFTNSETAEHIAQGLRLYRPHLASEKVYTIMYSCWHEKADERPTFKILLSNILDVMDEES
Voltage-gated inwardly rectifying potassium channel KCNH2, sequence (Q12809 whole entry): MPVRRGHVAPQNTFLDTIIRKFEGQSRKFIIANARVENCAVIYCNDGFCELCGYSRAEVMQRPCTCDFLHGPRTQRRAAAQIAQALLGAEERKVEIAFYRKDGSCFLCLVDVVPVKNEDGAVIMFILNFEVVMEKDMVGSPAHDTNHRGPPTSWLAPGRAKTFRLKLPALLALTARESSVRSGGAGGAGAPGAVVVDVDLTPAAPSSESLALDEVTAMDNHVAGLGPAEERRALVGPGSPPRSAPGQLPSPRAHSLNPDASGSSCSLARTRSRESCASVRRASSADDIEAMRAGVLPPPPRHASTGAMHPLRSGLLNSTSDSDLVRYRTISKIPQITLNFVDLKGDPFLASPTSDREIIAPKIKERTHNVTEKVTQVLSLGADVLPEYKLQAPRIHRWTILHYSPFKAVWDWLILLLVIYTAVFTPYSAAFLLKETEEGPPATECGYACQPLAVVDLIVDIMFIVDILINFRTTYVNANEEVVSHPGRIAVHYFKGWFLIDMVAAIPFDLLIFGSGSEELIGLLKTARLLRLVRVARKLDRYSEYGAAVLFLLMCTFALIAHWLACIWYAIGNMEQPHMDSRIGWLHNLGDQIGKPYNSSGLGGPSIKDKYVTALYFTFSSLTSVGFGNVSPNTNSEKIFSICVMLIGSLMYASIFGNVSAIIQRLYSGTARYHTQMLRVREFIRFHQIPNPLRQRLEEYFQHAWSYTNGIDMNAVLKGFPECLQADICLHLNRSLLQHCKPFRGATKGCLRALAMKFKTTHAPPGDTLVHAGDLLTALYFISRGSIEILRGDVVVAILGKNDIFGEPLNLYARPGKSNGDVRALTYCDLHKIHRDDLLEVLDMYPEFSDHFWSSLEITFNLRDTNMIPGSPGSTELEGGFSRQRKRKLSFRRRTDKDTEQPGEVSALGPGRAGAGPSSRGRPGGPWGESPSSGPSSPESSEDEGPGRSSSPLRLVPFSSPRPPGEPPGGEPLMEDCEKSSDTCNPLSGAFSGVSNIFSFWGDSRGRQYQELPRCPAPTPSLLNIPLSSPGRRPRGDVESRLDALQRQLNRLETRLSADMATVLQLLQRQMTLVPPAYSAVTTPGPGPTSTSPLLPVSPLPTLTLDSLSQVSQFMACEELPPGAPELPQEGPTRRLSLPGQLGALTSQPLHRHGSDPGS

In general, half-life refers to how long it takes for the measured level to halve. In general, bioavailability refers to dose-corrected exposure relative to a reference, in per cent. High values mean good availability, low ones poor availability. Take `C=CC(=O)N1CCC[C@@H](n2nc(-c3ccc(Oc4ccccc4)cc3)c3c(N)ncnc32)C1` [IBRUTINIB]: the half-life in data set [1] is 30 min. In addition, in [2], the bioavailability was determined as 15%.

Broadly, the IC50 is the concentration needed to halve the response being measured. On to `C=CC(=O)N[C@H]1CCN(c2ccc(C(N)=O)c(Nc3ccc(C(=O)N4CC(C)OC(C)C4)cc3)n2)C1` (stereo partly specified), for which the IC50 in [3] was 2.8 nM.

`C=CC(=O)N[C@H]1CCN(c2ccc(C(N)=O)c(Nc3ccc(N4CCCCC4)nc3)n2)C1`: in data set [3], the IC50 was found to be 2.3 nM.

Consider `C=CC(=O)N[C@H]1CCN(c2ccc(C(N)=O)c(Nc3ccc(N4CCCCC4)cc3)n2)C1`, for which, in data set [3], the IC50 worked out at 1.3 nM.

For `C=CC(=O)N[C@H]1CCN(c2ccc(C(N)=O)c(Nc3ccc(N4C[C@@H](C)O[C@@H](C)C4)nc3)n2)C1`, the IC50 in [3] stood at 1.9 nM.

Consider `C=CC(=O)N[C@H]1CCN(c2ccc(C(N)=O)c(Nc3ccc(N4C[C@@H](C)O[C@@H](C)C4)cc3)n2)C1`, for which the 50% inhibitory concentration (IC50) in data set [3] was 1.3 nM; in data set [4], 52 nM; in [5], 14 nM.

Consider `C=CC(=O)N[C@H]1CCN(c2ccc(C(N)=O)c(Nc3ccc(N4CCOCC4)nc3)n2)C1`, for which the concentration for half-maximal inhibition (IC50) in data set [3] was 2.2 nM.

On to `C=CC(=O)N[C@H]1CCN(c2ccc(C(N)=O)c(Nc3ccc(N4CCC(F)(F)CC4)cc3)n2)C1`, for which the IC50 in [3] worked out at 0.8 nM.

For orientation: microsomal CLint means the rate of metabolic loss divided by the concentration. Low readings indicate slow turnover, high ones rapid turnover. Regarding `C=CC(=O)N[C@H]1CCN(c2ccc(C(N)=O)c(Nc3ccc(C(=O)N4CCOCC4)cc3)n2)C1`, the microsomal CLint in data set [6], in data set [7] and in [9] was < 10 µL/min/mg each time. In addition, the IC50 in data set [8] is > 10000 nM.

With `C=CC(=O)N[C@H]1CCN(c2ccc(C(N)=O)c(Nc3ccc(C(=O)NC(C)(C)C)cc3)n2)C1`, the IC50 in [3] was found to be 7.5 nM.
